Measurements as given in a melting point compilation (Tetko et al.; mined from patent text by program, amines drawn as free bases though some values may be those of a salt).

Row | melting point | SMILES
1 | 103 to 104 °C | NS(=O)(=O)Oc1ccc(Cl)cc1
2 | 160 to 161 °C | FC(F)(F)c1ccc(/C=C/c2nc(COc3ccc(CCCCn4ccnn4)cc3)co2)cc1
3 | 164 to 165 °C | COc1ccc(Nc2ccnc(NCCO)c2)cc1
4 | 72 to 74 °C | COc1cc(CCCCCCCCCCCO)ccc1O
5 | 129 to 130 °C | O=c1[nH]c(=O)n(C2CC(O)C(COCc3ccccc3)O2)cc1F (stereo not given)
6 | 97 °C | CCCN(c1nc(-c2ccc(OC)cc2Cl)c(C)s1)c1cc([N+](=O)[O-])ccc1OC
7 | 105 to 108 °C | CCNC(=O)c1sc(Cl)cc1[Si](C)(C)C
8 | 240 to 242 °C | COc1c(N2CC(C)C(NC3CC3)C(C)C2)c(F)cc2c(=O)c(C(=O)O)cn(C3CC3)c12 (stereo not given)
9 | 161 to 162 °C | CCCCCCCCCCCCCC(=O)Nc1ccc(Cl)c(NC2=NN(c3c(Cl)cc(Cl)cc3Cl)C(=O)C2SCCc2ccccc2)c1 (stereo not given)
10 | 236 to 237 °C | Nc1cc(CO)cc(Nc2c3ccccc3nc3occc23)c1
11 | 75 to 77 °C | C=CCC12CCC(=O)C1(C)CCC1c3ccc(OC)cc3CCC12 (stereo not given)
12 | 236 to 239 °C | CCc1ccc2c(c1)CCC21CCc2cc(CC)ccc21
13 | 146 °C | CCc1ccc(C(=O)Cc2ccc(Br)cc2)cc1
14 | 169 to 170 °C | COc1cc([C@@H]2SC[C@@H](c3cc(OC)c(O)c(OC)c3)S2)cc(OC)c1O (relative stereo)
15 | 222 to 224 °C | c1ccc(Nc2ccnc3cn[nH]c23)cc1
16 | 111 to 112 °C | COc1ccc(/C(=C\C=C\C(=O)Oc2ccc([N+](=O)[O-])cc2)C2CC2)cc1
17 | 177 to 178 °C | CC(C)(C)n1nc(-c2ccccc2)c(C(N)=O)c1N
18 | 194 to 196 °C | COC(=O)c1nc(-c2ccc(Cl)cc2F)nc(N)c1Cl
19 | 135 to 137 °C | COc1ccc(C2=NN(c3csc(C)n3)C(=O)[C@H]3CCCC[C@@H]23)cc1OC (relative stereo)
20 | 92.5 to 93 °C | Cc1nc(C(F)(F)F)ccc1C(Cl)=C1C(=O)C(C)(C)C(=O)C(C)(C)C1=O
21 | 206 to 207 °C | COc1cc2cc(-c3ccc(OCC(O)CNC(C)C)cc3)n(C)c(=O)c2cc1OC (stereo not given)
22 | 142 to 144 °C | Cc1ccc(NS(=O)(=O)c2ccccc2)cc1N
23 | 52 to 53 °C | CC(=O)/C=C(\C)c1ccc(C2CCCCC2)c(Br)c1
24 | 79 to 80 °C | C=CCc1cc2c(cc1O)CC(CCc1ccccc1)O2 (stereo not given)

Row | melting point | SMILES
25 | 300 to 302 °C | O=C(O)c1ccc(C=CC(=O)c2ccc(O)cc2)cc1
26 | 122 to 124 °C | Cc1ccc(C=CC(C)N(O)C(N)=O)o1 (stereo not given)
27 | 150 to 151 °C | CNc1nnc(-c2ccccc2)c(=O)n1NC
28 | 231 to 233 °C | CC1(C)Oc2ccc(C#N)cc2[C@@H](NC(=O)NC(=O)C(Cl)(Cl)Cl)[C@@H]1O (relative stereo)
29 | 200 to 202 °C | COc1ccn(-c2nc(C)c(C(=O)NCc3cccnc3)s2)c(=O)c1
30 | 170 to 171 °C | COc1cc(-c2cc(=O)c3ccc(OCC(O)CN4CCN(c5ccccc5)CC4)cc3o2)cc(OC)c1OC (stereo not given)
31 | 182 to 190 °C | O=Cc1ccc(C(=O)O)c(SCc2ccccc2)c1
32 | 202 to 203 °C | FC(F)(F)Oc1ccc(-n2cnc3ccc(-c4nnc(N5CCOCC5)o4)cc32)cc1
33 | 89 to 90 °C | COc1ccc(C(C)C(=O)O)cc1[N+](=O)[O-] (stereo not given)
34 | 253 to 255 °C | N=C(NOC(=O)c1ccccc1)c1ccc(NC(=O)CCCC(=O)Nc2ccc(C(=N)NOC(=O)c3ccccc3)cc2)cc1
35 | 199 to 203 °C | CCC1C(=O)c2c(cc(OCC(=O)O)c(Cl)c2Cl)C1c1ccccc1 (stereo not given)
36 | 93 to 94 °C | C#CC1(O)c2ccccc2COc2ccccc21 (stereo not given)
37 | 74 to 75 °C | CCNc1cc(C)nn1-c1c(Cl)cc(C(F)(F)F)cc1Cl
38 | 162 °C | O=C(O)c1c(Cl)ccc2c1OCCO2
39 | 82 to 84 °C | CCSC(=S)N1C(CO)Cc2c([nH]c3ccccc23)C1CC (stereo not given)
40 | 129 to 133 °C | CCOC(=O)c1ncc2[nH]c3cccc(COC(C)=O)c3c2c1COC
41 | 65 to 69 °C | BrC1=Cc2ccccc2Nc2ccccc21
42 | 134 to 135 °C | O=C(CCc1ccccc1)N[C@H](Cc1ccc(C(F)(F)F)cc1)[C@@H](O)c1ccoc1 (racemic)
43 | 138 to 140 °C | CC(C)(C#N)CNC(=O)c1nn(C2CCCCO2)cc1NC(=O)c1ccccn1 (stereo not given)
44 | 159 °C | Cc1cc(O)nc(Oc2cc(C(F)(F)F)nn2C)c1
45 | 138 to 139 °C | Clc1ccnc(-n2ccnc2)n1
46 | > 250 °C | CC(C)n1nc(-c2sc(NC(=N)N)nc2-c2ccccc2)ccc1=O
47 | 146 to 147 °C | CCOC(=O)N1CCSC1C1=C(C)NC(=O)CS1 (stereo not given)
48 | 150 to 165 °C | CN(C)C(=O)c1nc2n(n1)-c1ccccc1N(c1ccccc1)C2

Row | melting point | SMILES
49 | 161 to 162 °C | CCN(CC)CCC1CCCCN1CCNC(=O)N1c2ccccc2C(=O)Nc2cccnc21 (stereo not given)
50 | 255 to 256 °C | Cc1nc(N2CCC[C@H]2CO)c2nc(-c3ccccc3)cc-2[nH]1
51 | 195 to 198 °C | CN1C(=S)Nc2ccncc2S1(=O)=O
52 | 198 to 200 °C | COC(=O)c1ccc(NNC(=O)C(C)C)cc1S(N)(=O)=O
53 | 112 to 113 °C | CCC(CC)Oc1nc(C)nc(Nc2c(C)cc(C)cc2C)c1[N+](=O)[O-]
54 | 58 to 60 °C | O=C1OC(CCc2ccccc2)(c2ccccc2)CC(O)=C1Sc1ccccc1 (stereo not given)
55 | 153 °C | COc1cc(N)c(Cl)cc1C(=O)N[C@H]1CCN(CCO)C[C@H]1OC (relative stereo)
56 | 92 to 93 °C | CC(=O)OC(CS(=O)(=O)CC(OC(C)=O)c1ccc(N)cc1)c1ccc(N)cc1 (stereo not given)
57 | 225 to 227 °C | CCCCc1nc2ccccc2n1Cc1ccc(-c2ccccc2C(=O)O)cc1
58 | 185 to 187 °C | CC(NC(=NC#N)Nc1cccnc1)c1ccccc1 (stereo not given)
59 | 140 to 142 °C | CC(C)(C)NNC(=O)c1nn(-c2ccc(F)cc2F)c2c1C1CCC2C1 (stereo not given)
60 | 205 °C | CN1C(=O)C(C(=O)Nc2ccc(F)cc2)S(=O)(=O)c2cc(Cl)ccc21 (stereo not given)
61 | 74 °C | COCCN1CCc2ccc(Nc3ncc(Cl)c(N[C@@H]4CCC[C@H]4NS(C)(=O)=O)n3)cc2CC1 (relative stereo)
62 | 167 to 168 °C | Cc1c(C=NO)c2ccccc2n1-c1ccc(OCc2ccccc2)c(F)c1
63 | 165 to 166 °C | COc1ccc(-c2cc(C=O)[nH]c2-c2ccc(OC)cc2)cc1
64 | 108 to 110 °C | CC(Cc1cccnc1)NC(=O)[C@@H]1C[C@H](C)CC[C@H]1C(C)C (stereo not given in full)
65 | 185 to 186 °C | CCC(C#N)=C1CCN(c2ccc(N3C[C@H](CNC(C)=O)OC3=O)cc2F)CC1
66 | 236 to 238 °C | O=C(Nc1ccc(-n2nc(C(F)(F)F)cc2C2CC2)nc1)c1ccc2[nH]nnc2c1
67 | 244 to 247 °C | CCCCOc1ccc(-c2ccc3c(c2)C=C(C(=O)O)CCS3(=O)=O)cc1
68 | 194 to 202 °C | CC1(C2CCC3C4CCC5CC(O)CCC5(C)C4C(OC(=O)CCl)CC32C)OCCO1 (stereo not given)
69 | 155 to 157 °C | COC1C=C(C)C(=O)CC(C)(C)C1OC(=O)c1ccc2nc[nH]c2c1 (stereo not given)
70 | 190 to 192 °C | CC1CCN2C=CC3=C(N=C12)C(c1c[nH]c2ccccc12)CC=C3 (stereo not given)
71 | 222 °C | Nc1ncc(-c2ccncn2)c(-c2ccco2)n1
72 | 207 to 208 °C | CC(C)(CC(O)(Cn1ccc2c1CCCC2=O)C(F)(F)F)c1cc(S(C)(=O)=O)cc2c1OCC2 (stereo not given)

Row | melting point | SMILES
73 | 108 to 111 °C | CC1(CNC(=O)OC(C)(C)C)CN(c2cccc(Cl)n2)C1
74 | 187 to 188 °C | C1=CC(c2ccccc2)(c2ccc(N3CCOCC3)cc2)Oc2cc(N3CCOCC3)c3ccccc3c21 (stereo not given)
75 | 90 to 91 °C | O=C1OCC(c2ccc([N+](=O)[O-])cc2)C1CSCc1ccccc1 (stereo not given)
76 | 107 to 109 °C | COc1ccc(C(=O)c2c(-c3ccccc3)sc3ccccc23)cc1
77 | 169 to 170 °C | CN(C)c1ccc(C(=O)N[C@H](Cc2ccc(C(F)(F)F)cc2)[C@@H](O)c2ccc(F)cc2)c2ccccc12 (racemic)
78 | 109 to 114 °C | O=C(C1CC1)N1CCN(C(=O)c2cc(C(F)(F)F)cc(C(F)(F)F)c2)[C@H](Cc2c[nH]c3ccccc23)C1
79 | 148 to 151 °C | C=Cc1cc(C)cc(C)c1CC(=O)N(C)C1(C#N)CCN(OC)CC1
80 | 38 to 39 °C | CCCCCCCCCCCOc1cccc(CCCC(NC(C)=O)(C(=O)OCC)C(=O)OCC)c1
81 | 231 °C | N#CC(C#N)=CN(N=C(C#N)C#N)c1ccc(C#N)cc1
82 | 235 °C | CN(C)c1ccc2nc(N)c(C#N)c(NCc3ccco3)c2c1
83 | 131 to 132 °C | CCOC(=O)C1CCc2[nH]c3ccc(OC(F)(F)F)cc3c2C1 (stereo not given)
84 | > 300 °C | CNC1(C)CN(c2nc3c(cc2F)c(=O)c(C(=O)O)cn3C(C)(C)C)C1
85 | 60 to 61 °C | CCOC(=O)C1(Cc2cccc(C)c2Br)CN(Cc2ccccc2)CCC1=O (stereo not given)
86 | 113 to 114 °C | C=CCNc1nc(Cl)c2ccn(C)c2n1
87 | 116 to 118 °C | COc1ccc(/C=C/C(=O)Nc2ccccc2C(=O)OCC(=O)OC(C)(C)C)cc1OC
88 | 240 to 242 °C | CC(=O)S[C@H]1C[C@@H](C(=O)Nc2cccc(C(=O)NS(C)(=O)=O)c2)N(C(=O)OCc2ccc([N+](=O)[O-])cc2)C1
89 | 91 to 92 °C | CCCCC(CC(=O)O)c1cc(Cl)c(OC)cc1OC (stereo not given)
90 | 189 to 190 °C | CCCCN1CCC(NC(=O)c2ccc(NCc3ccnc4ccccc34)cc2)CC1
91 | 224 to 228 °C | NS(=O)(=O)c1cc(C(=O)O)cc(CCn2cccc2)c1Cl
92 | 248 to 250 °C | CC(=O)c1cc2c(s1)SCCc1cc(=O)n(-c3ccc(Cl)cc3)nc1-2
93 | 152 to 154 °C | O=C(c1cc2ccnc(Cl)c2[nH]1)N1CCCC1
94 | 157 to 159 °C | COC1(OCCCCl)C=CC(C(=O)O)=CC1 (stereo not given)

Row | SMILES | melting point
95 | N#Cc1nn(-c2c(Cl)cc(C(F)(F)F)cc2Cl)c(N)c1-c1ccc(Br)cc1 | 242 to 244 °C
96 | CN1C(=O)C(C(=O)Nc2ccc(Oc3nc(C(F)(F)F)nn3C)cc2)C(=O)N(C)C1=O | 202 to 204 °C
97 | O=C1OCCC1N1CCCC1=O (stereo not given) | 80 to 81 °C
98 | CNCCc1c(C)[nH]c2ccc(S(=O)(=O)c3ccccc3)cc12 | 165 to 166 °C
99 | OC1c2ccccc2CCC12CCCCN2 (stereo not given) | 125 to 127 °C
100 | N#Cc1nn(-c2c(Cl)cc(C(F)(F)F)cc2Cl)c(N)c1C(=O)C(F)(F)F | 226 °C
